How the values were obtained:
proAR = assay: Flow cytometric analysis of cell surface proAR (proAR shedding); assay type: cell-based, human; conditions: for cell surface content of endogenous proAR after agonist treatment: head and neck cancer cells, LPA 10 μM
Experimental: (§1) FIG. 1 GPCR stimulation of the EGFR Involves a ligand-dependent mechanism and is accompanied by AR release from the cell surface. a, EGFR signal transactivation requires metalloprotease activity and the EGFR extracellular domain. SCC-9 cells were pre-incubated with marimastat (BB2516, 10 μM; 20 min), anti-EGFR antibody ICR-3R (20 μg/mL; 60 min) or PTX (100 ng/mL; 18 h) and treated with LPA (10 μM), carbachol (Car, 1 mM), EGF (7.5 ng/mL) or pervanadate (PV, 1 mM) for 3 min. Following immunoprecipitation (IP) of cell extracts with anti-EGFR antibody proteins were immunoblotted (IB) with anti-phosphotyrosine antibody and re-probed with anti-EGFR antibody. b, Flow cytometric analysis of EGF-like precursor expression. SCC-9 cells were collected and stained for surface HB-EGF, TGFa or AR and analyzed by flow cytometry. Control cells were labelled with FITC-conjugated secondary antibody alone. c, LPA-induced proteolytic processing of proAR. SCC-9 cells were pre-incubated with batimastat (BB94, 10 μM) or PTX and stimulated with LPA or TPA (1 μM) for 5 min. Cells were collected and analyzed for cell surface AR density by flow cytometry. d, GPCR-induced proteolytic release of AR. SCC-9 cells were pre-incubated with batimastat or vehicle followed by stimulation with agonists as indicated for 120 min. Conditioned medium was collected and analyzed for total AR amount by ELISA. Each bar is the average of triplicate values (mean±s.d.). *, P<0.03 for the difference between agonists vs. BB94+agonists.
(§2) ACS analysis was performed as described before (1). Cells were stained with ectodomain-specific antibodies against HB-EGF, AR (R&D Systems) or TGFa (Oncogene, Boston; Mass.). After washing with PBS, cells were incubated with FITC-conjugated secondary antibody and analyzed on a Becton Dickinson FACScalibur flow cytometer.

proTGFα = assay: Flow cytometric analysis of proTGFα ectodomain cleavage; assay type: cell-based, human; conditions: HNSCC cells; data not shown
Experimental: as §2

proHB-EGF = assay: Flow cytometric analysis of proHB-EGF ectodomain cleavage; assay type: cell-based, human; conditions: HNSCC cells; data not shown
Experimental: as §2

amphiregulin (AR) = assay: AR release into cell culture medium (sandwich ELISA); assay type: cell-based, human; conditions: SCC-9 cells; compared to LPA stimulation
Experimental: as §1, with “SCC-9 cells were pre-incubated with batimastat (BB94, 10 μM) or PTX and stimulated with LPA or TPA (1 μM) for 5 min.” left out, “SCC-9 cells were pre-incubated with batimastat or vehicle followed by stimulation with agonists as indicated for 120 min.” left out, “Each bar is the average of triplicate values (mean±s.d.). *, P<0.03 for the difference between agonists vs. BB94+agonists.” left out
Concentrations of free AR were determined by sandwich ELISA (R&D Systems) using monoclonal anti-AR capture antibody and biotinylated polyclonal detection antibody. […] Values are expressed as mean±s.d. of at least triplicate samples. […]

EGFR = EGFR tyrosine phosphorylation / EGFR signal transactivation (IP with anti-EGFR, anti-phosphotyrosine immunoblot); assay type: cell-based, human; conditions: for GPCR-induced EGFR tyrosine phosphorylation (EGFR transactivation signal): SCC-9 cells, stimulation with LPA or carbachol
Experimental: as §1
FIG. 2 GPCR stimulation requires AR to trigger EGFR-dependent signals and biological responses. a, Blockade of EGF-like growth factor precursor expression by RNA interference (RNAi). SCC-9 cells were transfected with siRNA for proAR, proHB-EGF or proTGFα cultured for 2 days and analyzed for gene expression by RT-PCR as indicated or b, stimulated with LPA or carbachol and assayed for EGFR tyrosine phosphorylation content. c, Requirement of AR for LPA-induced cell migration. SIRNA-transfected SCC-9 cells were analyzed for transwell migration toward fibronectin as chemoattractant. Each bar is the average of quadruplicate values (mean±s.d.). *, P<0.001 for control siRNA+LPA vs. proAR siRNA+LPA. d, Effect of anti-AR neutralizing antibody and heparin on GPCR-induced EGFR and SHC tyrosine phosphorylation. […] Phosphorylated ERK1/2 was detected by immunoblotting total lysates with anti-phospho-ERK antibody. […] Quantitative analysis of ERK phosphorylation from three independent experiments (mean±s.d.). *, P<0.05 for the difference between LPA vs. inhibitors+LPA. […] Cells were then pulse-labelled with ^3H-thymidine and thymidine incorporation was measured by liquid-scintillation counting. Quantitative analysis from three independent experiments (mean±s.d.). *, P<0.001 for LPA vs. inhibitors+LPA. […]

SCC-15 cells = assay: 3H-thymidine incorporation assay (DNA synthesis); assay type: cell-based, human; conditions: 18 h
Text: (§3) FIG. 2 GPCR stimulation requires AR to trigger EGFR-dependent signals and biological responses. a, Blockade of EGF-like growth factor precursor expression by RNA interference (RNAi). SCC-9 cells were transfected with siRNA for proAR, proHB-EGF or proTGFα cultured for 2 days and analyzed for gene expression by RT-PCR as indicated or b, stimulated with LPA or carbachol and assayed for EGFR tyrosine phosphorylation content. c, Requirement of AR for LPA-induced cell migration. SIRNA-transfected SCC-9 cells were analyzed for transwell migration toward fibronectin as chemoattractant. […] Phosphorylated ERK1/2 was detected by immunoblotting total lysates with anti-phospho-ERK antibody. […] Quantitative analysis of ERK phosphorylation from three independent experiments (mean±s.d.). *, P<0.05 for the difference between LPA vs. inhibitors+LPA. […] Cells were then pulse-labelled with ^3H-thymidine and thymidine incorporation was measured by liquid-scintillation counting. Quantitative analysis from three independent experiments (mean±s.d.). *, P<0.001 for LPA vs. inhibitors+LPA.
For the ^3H-thymidine incorporation assay (5), SCC-15 cells were seeded into 12-well plates at 3×10^4 cells/well. […] After 18 h cells were pulse-labelled with ^3H-thymidine (1 μCi/ml) for 4 h, and thymidine incorporation was measured by trichloroacetic acid precipitation and subsequent liquid-scintillation counting.

TACE = TACE (Homo sapiens, UniProt P78536); conditions: reference (25); cited from earlier work
ERK1/2 = assay: ERK/MAPK activation (anti-phospho-ERK immunoblot); assay type: cell-based, human; conditions: SCC-9 and SCC-15 cells
Text: as §3
Cells were lysed and proteins immunoprecipitated as described (13). […] Phosphotyrosine was detected with the 4G10 monoclonal antibody (UBI, Lake Placid, N.Y.). […]

Akt/PKB = Akt/PKB phosphorylation (anti-phospho-Akt immunoblot); assay type: cell-based, human; conditions: head and neck cancer cells

TACE, sequence (P78536 215-824): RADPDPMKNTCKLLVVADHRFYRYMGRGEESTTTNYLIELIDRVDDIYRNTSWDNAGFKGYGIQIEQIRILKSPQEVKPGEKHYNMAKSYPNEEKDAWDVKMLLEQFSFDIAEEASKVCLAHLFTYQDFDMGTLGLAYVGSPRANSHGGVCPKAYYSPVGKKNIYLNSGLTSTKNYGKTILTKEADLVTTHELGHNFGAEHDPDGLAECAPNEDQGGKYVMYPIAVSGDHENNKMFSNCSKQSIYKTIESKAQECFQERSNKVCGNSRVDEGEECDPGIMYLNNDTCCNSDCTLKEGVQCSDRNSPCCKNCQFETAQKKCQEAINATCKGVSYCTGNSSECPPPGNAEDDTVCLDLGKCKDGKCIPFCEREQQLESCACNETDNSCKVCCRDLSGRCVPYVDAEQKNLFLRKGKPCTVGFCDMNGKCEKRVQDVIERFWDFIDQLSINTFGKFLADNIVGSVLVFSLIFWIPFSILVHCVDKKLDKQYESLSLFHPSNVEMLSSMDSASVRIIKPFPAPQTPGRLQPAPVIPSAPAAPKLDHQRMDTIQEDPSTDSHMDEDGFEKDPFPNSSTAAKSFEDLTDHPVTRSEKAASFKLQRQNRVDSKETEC

Q: Which “cell surface content of endogenous proAR after agonist treatment” value (proAR; TPA 1 µM as printed) does the source give for `CCCCCCCCCCCCCC(=O)O[C@@H]1[C@@H](C)[C@@]2(O)[C@@H](C=C(CO)C[C@]3(O)C(=O)C(C)=C[C@@H]23)[C@@H]2C(C)(C)[C@]12OC(C)=O` [TPA] here?
A: The value was “reduced”.

Q: What about the “proteolytic (ectodomain) cleavage of proTGFα by agonist” value (proTGFα) of the same molecule?
A: The value was “resulted in ectodomain cleavage”.

Q: And the “proteolytic (ectodomain) cleavage of proHB-EGF by agonist” value (proHB-EGF)?
A: The value was “resulted in ectodomain cleavage”.

Q: Which “AR release in response to agonist” value (amphiregulin (AR)) does the source give for `C[N+](C)(C)CCOC(N)=O` [carbachol] here?
A: The value was “substantially lower compared to LPA stimulation”.

Q: For `CNC(=O)[C@@H](NC(=O)[C@H](CC(C)C)[C@H](O)C(=O)NO)C(C)(C)C` [marimastat], which “GPCR-induced EGFR tyrosine phosphorylation (EGFR transactivation signal)” value (EGFR) is on record?
A: Its value is “sensitive”.

Q: With `COc1cc2ncnc(Nc3cccc(Cl)c3)c2cc1OC` [tyrphostin AG1478] as the molecule, how does the “DNA synthesis triggered by LPA” value (SCC-15 cells) read?
A: Its value is “decreased DNA synthesis by LPA to below basal level”.

Q: Which results are given for “Timp-1: human Timp-1; ectopic expression by retroviral transduction”?
A: GPCR-induced EGFR tyrosine phosphorylation (EGFR transactivation signal) (EGFR): not; proteolytic activity of TACE in vitro (TACE): not

Q: With heparin as the molecule, how does the “LPA-induced EGFR tyrosine phosphorylation (EGFR signal transactivation)” value (EGFR; LPA 10 μM, 3 min, SCC-9 (anti-AR also SCC-4, SCC-15, SCC-25)) read?
A: The value was “completely blocked”.

Q: What about the “LPA-induced ERK activation” value (ERK1/2) of the same molecule?
A: The value was “prevented”.

Q: Which “cell surface content of endogenous proAR after agonist treatment” value (proAR; TPA 1 µM) does the source give for lysophosphatidic acid [LPA] here?
A: Its value is “reduced”.

Q: And the “proteolytic (ectodomain) cleavage of proTGFα by agonist” value (proTGFα)?
A: The value was “not able to induce”.

Q: And the “proteolytic (ectodomain) cleavage of proHB-EGF by agonist” value (proHB-EGF)?
A: Its value is “not able to induce”.

Q: And the “phosphorylation of Akt/PKB at Ser-473 by agonist” value (Akt/PKB)?
A: The value was “markedly increased”.

Q: Which “LPA-induced ectodomain cleavage (shedding) of proAR” value (proAR; SCC-9 cells, batimastat 10 μM, PTX 100 ng/mL) does the source give for pertussis toxin [PTX] here?
A: Its value is “partially inhibited”.

B1: Timp-3: tissue inhibitor of metalloprotease-3; ectopic expression by retroviral transduction (protein)
chain: CTCSPSHPQDAFCNSDIVIRAKVVGKKLVKEGPFGTLVYTIKQMKMYRGFTKMPHVQYIHTEASESLCGLKLEVNKYQYLLTGRVYDGKMYTGLCNFVERWDQLTLSQRKGLNYRYHLGCNCKIKSCYYLPCFVTSKNECLWTDMLSNFGYPGYQSKHYACIRQKGGYCSWYRGWAPPDKSIINATDP
modifications: left off: small tags and cut ends
notes: ectopic expression by retroviral transduction
Q: With B1 as the molecule, how does the “GPCR-induced EGFR tyrosine phosphorylation (EGFR transactivation signal)” value (EGFR) read?
A: Its value is “inhibited”.

Q: What about the “proteolytic activity of TACE in vitro” value (TACE) of the same molecule?
A: The value was “inhibited”.

Reference: patent US7524495B2, “Inhibition of TACE or amphiregulin for the modulation of EGF receptor signal transactivation” (Max-Planck-Gesellschaft zur Foerderung der Wissenschaften …, priority 2003, dated 2009)
